Data on seven molecules can be found in article PMC9250238 (BMC Complementary Medicine and Therapies, 2022).

In assay [1] the target is T1, α-glucosidase (Saccharomyces cerevisiae) (Saccharomyces cerevisiae, UniProt P53341). Briefly: biochemical.
Method: (§3) α-Glucosidase inhibitor screening was conducted according to a previously reported procedure with slight modifications [20]. A measured amount of pNPG powder was dissolved at 2 mg/mL in 0.01 M phosphate buffer (pH = 6.8), and then 50 μL of the pNPG solution was mixed with an equal volume of isolated compounds from D. angustifolia Roxb, which were diluted to 4 mM. After being kept at 37 °C for 10 min, 25 μL of α-glucosidase (0.5 U/mL) was added. Following another 10 min incubation at 37 °C, the reaction was stopped with 125 μL of 0.2 M Na2CO3, and the absorbance at 410 nm of each sample (converted pNP) was measured via a microplate reader (BioTek ELX-800, USA).
Assay [2] addresses T1, α-glucosidase (Saccharomyces cerevisiae). The experiment in a line: Kinetic test for α-glucosidase (Lineweaver–Burk).
Method: A measured amount of pNPG powder was dissolved at 2 mg/mL in 0.01 M phosphate buffer (pH = 6.8), and then 50 μL of the pNPG solution was mixed with an equal volume of isolated compounds from D. angustifolia Roxb, which were diluted to 4 mM. After being kept at 37 °C for 10 min, 25 μL of α-glucosidase (0.5 U/mL) was added. Following another 10 min incubation at 37 °C, the reaction was stopped with 125 μL of 0.2 M Na2CO3, and the absorbance at 410 nm of each sample (converted pNP) was measured via a microplate reader (BioTek ELX-800, USA). […] To acquire the inhibition type and related parameters of those inhibitors, kinetic assays were carried out, and the conditions of enzymatic reactions are detailed in the above section, in which the amount of enzymes was fixed. With an increasing amount of substrate, the amount of hydrolysed pNPG or starch in the presence of compounds (concentration gradient was established on the basis of their IC50 value) was quantified to create Lineweaver–Burk plots.
Assay [3] shares this target. Briefly: Combined inhibition of acarbose and selected compounds against α-glucosidase (CompuSyn CI). Conditions: for Type of interaction with acarbose against α-glucosidase: CI >1.1 antagonistic, 0.9-1.1 additive, <0.9 synergistic; for CI values against α-glucosidase: combination with acarbose, over tested concentrations. Also noted: purchased Sigma–Aldrich. Type of assay: biochemical. From the text:
(§1) A combination index (CI) was employed to evaluate the impacts of binary inhibitors on α-glucosidase and α-amylase. […] When the CI values were above 1.1, between 0.9 and 1.1, and below 0.9, the effects were defined as antagonistic, additive, and synergistic.

Assay [4] addresses T2, α-amylase (porcine pancreas) (Sus scrofa, UniProt P00690).
T2 sequence (P00690 16-511): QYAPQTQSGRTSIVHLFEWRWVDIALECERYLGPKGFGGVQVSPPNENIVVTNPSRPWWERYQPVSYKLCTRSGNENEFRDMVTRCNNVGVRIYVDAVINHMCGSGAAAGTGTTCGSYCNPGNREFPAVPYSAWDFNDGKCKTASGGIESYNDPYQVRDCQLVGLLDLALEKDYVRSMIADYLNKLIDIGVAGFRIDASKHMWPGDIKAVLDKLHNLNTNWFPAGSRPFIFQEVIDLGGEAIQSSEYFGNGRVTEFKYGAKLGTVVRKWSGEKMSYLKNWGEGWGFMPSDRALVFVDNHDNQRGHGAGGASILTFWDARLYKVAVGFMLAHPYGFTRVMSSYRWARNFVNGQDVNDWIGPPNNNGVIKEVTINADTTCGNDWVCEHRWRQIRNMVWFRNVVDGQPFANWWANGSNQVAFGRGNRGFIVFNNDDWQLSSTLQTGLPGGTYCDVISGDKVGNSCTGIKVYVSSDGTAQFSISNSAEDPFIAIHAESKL
The experiment in a line: α-Amylase inhibition assay (starch-iodine). Conditions: for IC50 against α-amylase (result in words): in the test concentration range.
Method: Changes in α-amylase activities were quantitatively analysed via a method based on starch-iodine colorimetric detection [21]. […] A mixture of 40 μL of starch solution and 40 μL of selected compounds was maintained at 37 °C for 10 min, and 80 μL α-amylase (5 U/mL) was added to start the reaction. After 30 min at 37 °C, terminations were achieved using 40 μL of 1 M HCl.

Assay [5] concerns the target T2, α-amylase (porcine pancreas). Briefly: Kinetic test for α-amylase (Lineweaver–Burk). The assay is classed as biochemical. Also on record: purchased Sigma–Aldrich; host or cells: porcine pancreas. Conditions: Lineweaver–Burk plots. The procedure: (§2) Changes in α-amylase activities were quantitatively analysed via a method based on starch-iodine colorimetric detection. […] A mixture of 40 μL of starch solution and 40 μL of selected compounds was maintained at 37 °C for 10 min, and 80 μL α-amylase (5 U/mL) was added to start the reaction. After 30 min at 37 °C, terminations were achieved using 40 μL of 1 M HCl.

Assay [6] shares this target. Briefly: Combined inhibition of acarbose and selected flavonoids against α-amylase (CompuSyn CI). Also on record: purchased Sigma–Aldrich; host or cells: porcine pancreas. Type of assay: biochemical. Conditions: CI >1.1 antagonistic, 0.9-1.1 additive, <0.9 synergistic. Here is the method:
as §2, §1

For assay [7], the target named is T1, α-glucosidase (Saccharomyces cerevisiae). Conditions: read-out: IC50 against α-glucosidase; in vitro, pNPG substrate, 37 °C, pH 6.8.
Method: as §3

Where two headings read alike, the source gives them in different places.

T1 sequence (P53341 whole entry): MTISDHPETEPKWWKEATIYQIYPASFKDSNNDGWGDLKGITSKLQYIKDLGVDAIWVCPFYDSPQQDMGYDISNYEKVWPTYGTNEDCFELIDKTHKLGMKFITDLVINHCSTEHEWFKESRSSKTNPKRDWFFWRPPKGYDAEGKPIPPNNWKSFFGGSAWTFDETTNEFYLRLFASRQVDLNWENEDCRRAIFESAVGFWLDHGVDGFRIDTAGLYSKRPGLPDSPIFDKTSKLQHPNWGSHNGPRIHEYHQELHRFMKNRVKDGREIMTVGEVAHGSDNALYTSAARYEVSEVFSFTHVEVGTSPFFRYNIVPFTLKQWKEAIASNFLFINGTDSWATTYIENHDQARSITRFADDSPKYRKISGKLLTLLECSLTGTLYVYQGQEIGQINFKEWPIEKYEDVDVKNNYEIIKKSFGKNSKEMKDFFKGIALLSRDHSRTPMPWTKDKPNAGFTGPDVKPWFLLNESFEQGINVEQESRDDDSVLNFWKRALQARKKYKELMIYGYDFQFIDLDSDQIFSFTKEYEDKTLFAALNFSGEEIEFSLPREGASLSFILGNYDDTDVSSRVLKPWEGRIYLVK

In assay [1], `COc1cc(O)c2c(c1C)O[C@H](c1ccc(O)cc1)CC2` [Compound 5, (2S)-4′,5-Dihydroxy-7-methoxy-8-methylflavan] yielded an IC50 of 240 ± 30 µM. Besides, affinity in assay [2] was put at a Ki of 39.9 ± 8.47 µM. Further, the “Mode of inhibition (α-glucosidase)” value in assay [2] (Lineweaver–Burk plots) is given as “noncompetitive inhibitor”.

Take `Cc1c(O)cc2c(c1O)C(=O)C(Cc1ccc(O)cc1)CO2` (centres unmarked) [Compound 8, 5,7-dihydroxy-6-methyl-3-(4′-hydroxybenzyl) chroman-4-one]: in assay [1], the IC50 stood at 520 ± 10 µM. Besides, in assay [3], the “Type of interaction with acarbose against α-glucosidase” value (from here on “Type … against α-glucosidase”) is given as “synergism” and the “CI values against α-glucosidase” value is on record as “below 0.9”. The IC50 in assay [4] turned out to be 5990 ± 60 µM. In assay [2], this molecule registered a Ki of 11.2 ± 0.99 µM. The “Mode of inhibition (α-glucosidase)” value in assay [2] (Lineweaver–Burk plots) is listed as “Competitive”. Further, in assay [5], the Ki was 14100 ± 3530 µM and the “Mode of inhibition (α-amylase)” value is reported as “Mixed”. In addition, in assay [6], the “Type of interaction with acarbose against α-amylase” value (shortened to “Type … against α-amylase”) is recorded as “additive effects”.

For the molecule `O=c1c(Cc2ccc(O)cc2)coc2cc(O)cc(O)c12` [Compound 9, 5,7-dihydroxy-3-(4′-hydroxybenzyl) chromone], the IC50 came out at 650 ± 10 µM in assay [1] and 2590 ± 50 µM in assay [4]. Further, the “Type … against α-glucosidase” value in assay [3] is reported as “synergism”. For the same molecule, the “CI values against α-glucosidase” value in assay [3] is reported as “below 0.9”. For the same molecule, the Ki amounted to 54.4 ± 15.8 µM in assay [2] and 8590 ± 1940 µM in assay [5]. Also, the “Mode of inhibition (α-glucosidase)” value in assay [2] (Lineweaver–Burk plots) is listed as “Mixed”. Besides, the “Mode of inhibition (α-amylase)” value in assay [5] is recorded as “Mixed”. In assay [6], the “Type … against α-amylase” value was “additive effects”.

Take `O=C(/C=C/c1ccc(O)cc1)NCCc1ccc(O)cc1` [Compound 18, trans-N-p-coumaroyltyramine]: 1.99 ± 0.2 µM corresponded to half-maximal inhibition in assay [1] (IC50). Also, the Ki in assay [2] turned out to be 21.1 ± 12.2 µM. For the same molecule, the “Mode of inhibition (α-glucosidase)” value in assay [2] (Lineweaver–Burk plots) is on record as “Uncompetitive”.

With `CCO[C@@H](c1ccc(O)c(OC)c1)[C@H](O)CO` [Compound 22, erythro-7R,8S-7-O-ethylguaiacyl glycerol], half-maximal inhibition in assay [1] (IC50) was put at 40 ± 4 µM. For the same molecule, in assay [3], the “Type … against α-glucosidase” value is given as “synergism” and the “CI values against α-glucosidase” value is “below 0.9”. Also, the “IC50 against α-amylase (result in words)” value in assay [4] is “did not yield 50% inhibition”. The Ki in assay [2] was 7 ± 1.97 µM. Further, the “Mode of inhibition (α-glucosidase)” value in assay [2] (Lineweaver–Burk plots) is reported as “Mixed”.

Turning to `Cc1c(Cl)c(O)cc(O)c1Cl` [Compound 24, 4,6-dichloro-5-methyl-benzene-1,3-diol], half-maximal inhibition in assay [1] (IC50) was put at 780 ± 30 µM. The “Type … against α-glucosidase” value in assay [3] is “moderate additive effects”. Besides, the “IC50 against α-amylase (result in words)” value in assay [4] was “did not yield 50% inhibition”. Besides, the Ki in assay [2] was found to be 44 ± 0.88 µM. The “Mode of inhibition (α-glucosidase)” value in assay [2] (Lineweaver–Burk plots) was “Mixed”.

“(2S)-4′-hydroxy-5,7-dimethoxy-8-methylflavan [Compound 6]”: the IC50 in assay [7] is 370 ± 20 µM; in assay [4] (read-out: IC50 against α-amylase, in vitro, starch-iodine method, 37 °C) it was 6030 ± 270 µM. The “Type … against α-glucosidase” value in assay [3] was “slight antagonism”. For the same molecule, the “CI (combination index) against α-glucosidase” value in assay [3] (highest concentration pair (about IC50), acarbose 5 mM, No.6/No.8 0.5 mM, No.9/No.24 1 mM, No.22 50 μM) worked out at 1.12. The “Mode of inhibition (α-glucosidase)” value in assay [2] (Lineweaver–Burk plots) was “Mixed”. The Ki turned out to be 57.8 ± 1.67 µM in assay [2] (read-out: Ki (α-glucosidase), Lineweaver–Burk plots) and 27500 ± 3510 µM in assay [5]. Also, the “Mode of inhibition (α-amylase)” value in assay [5] is given as “Mixed”. In addition, the “Type … against α-amylase” value in assay [6] was “additive effects”.
